# The source made the active and inactive calls. The rule behind the calls is not given here.
# Tested on: GENE-TOX genotoxicity assays, various organisms and cells
# Assay: GENE-TOX mutagenicity studies
# Settings: for call: Assay Type: In vivo carcinogenicity studies
# [1] = Species/Cell Type: Drosophila melanogaster, Assay Type: Sex-linked recessive lethal gene mutation, Assay Code: SRL+, Evaluation Type: Evaluation A (Pre-1980)
# [2] = Species/Cell Type: Neurospora crassa, Assay Type: Reverse gene mutation, Assay Code: NER+, Evaluation Type: Evaluation A (Pre-1980)
# [3] = Species/Cell Type: Nonhuman, Assay Code: CCG+L, Evaluation Type: Evaluation A (Pre-1980)
# [4] = Species/Cell Type: Saccharomyces cerevisiae, Assay Type: Mitotic recombination or gene conversion, Assay Code: YEC+, Evaluation Type: Evaluation A (Pre-1980)
# [5] = Species/Cell Type: Saccharomyces cerevisiae, Assay Type: Mitotic recombination or gene conversion, Assay Code: YEH+, Evaluation Type: Evaluation A (Pre-1980)
# [6] = Species/Cell Type: Salmonella typhimurium (one or more of the five standard strains: TA98, TA100, TA1535, TA1537, and TA1538), Assay Type: Histidine reverse gene mutation, Ames assay, Assay Code: SAL+, Evaluation Type: Evaluation A (Pre-1980)
# [7] = Species/Cell Type: Salmonella typhimurium (one or more of the five standard strains: TA98, TA100, TA1535, TA1537, and TA1538), Assay Type: Histidine reverse gene mutation, Ames assay, Assay Code: SALT, Evaluation Type: Evaluation A (Pre-1980)
# [8] = Species/Cell Type: Nonhuman, Assay Type: Sister-chromatid exchange (SCE) in vitro, Assay Code: SC2+D, Dose Response: With dose response, Evaluation Type: Evaluation B (Post-1980)
# [9] = Species/Cell Type: Salmonella typhimurium (one or more of the five standard strains: TA98, TA100, TA1535, TA1537, and TA1538), Assay Type: Histidine reverse gene mutation, Ames assay, Assay Code: SAL+*, Activation: With metabolic activation, Evaluation Type: Evaluation A (Pre-1980)
# [10] = Species/Cell Type: Mammalian polychromatic erythrocytes, Assay Type: Micronucleus test, chromosome aberrations, Assay Code: MNTT, Evaluation Type: Evaluation B (Post-1980)
# [11] = Species/Cell Type: Neurospora crassa, Assay Type: Aneuploidy, chromosome aberrations, Assay Code: NEN-, Evaluation Type: Evaluation A (Pre-1980)
# [12] = Species/Cell Type: Nonhuman, Assay Code: CCG+, Evaluation Type: Evaluation A (Pre-1980)
# [13] = Species/Cell Type: Saccharomyces cerevisiae, Assay Type: Reverse gene mutation, Assay Code: YER+, Evaluation Type: Evaluation A (Pre-1980)
structure (smiles),measurement,setting,value
CC(=O)ON(C(C)=O)c1ccc2c(c1)Cc1ccccc1-2,mutagenic call,"Species/Cell Type: Chinese hamster lung (V79) cells, Assay Type: Forward gene mutation at the HPRT or ouabain locus, Assay Code: V79+, Evaluation Type: Evaluation A (Pre-1980)",active; positive
same,mutagenic call,[1],active; positive
same,mutagenic call,"Species/Cell Type: Escherichia coli polA (W3119 vs P3478), Assay Type: Rec-assay, DNA effects (bacterial DNA repair), Assay Code: RE1+, Evaluation Type: Evaluation A (Pre-1980)",active; positive
same,mutagenic call,"Species/Cell Type: Fischer rat embryo (RLV/1706) cells, Assay Type: Cell transformation, viral enhanced, Assay Code: CTR+, Evaluation Type: Evaluation A (Pre-1980)",active; positive
same,mutagenic call,"Species/Cell Type: Human diploid fibroblasts, Assay Type: Unscheduled DNA synthesis (UDS) in vitro, DNA effects, Assay Code: UDH+D, Dose Response: With dose response, Evaluation Type: Evaluation A (Pre-1980)",active; positive
same,mutagenic call,"Species/Cell Type: Human lymphocytes, Assay Type: Sister-chromatid exchange (SCE) in vitro, Assay Code: SCL+, Evaluation Type: Evaluation B (Post-1980)",active; positive
same,mutagenic call,"Species/Cell Type: Human, Assay Type: Sister-chromatid exchange (SCE) in vitro, Assay Code: SC1+, Evaluation Type: Evaluation A (Pre-1980)",active; positive
same,mutagenic call,"Species/Cell Type: Mouse (BALB/c-3T3) cells, Assay Type: Cell transformation, Assay Code: CTB+, Evaluation Type: Evaluation A (Pre-1980)",active; positive
same,mutagenic call,"Species/Cell Type: Mouse (C3H/10T1/2) cells, Assay Type: Cell transformation, Assay Code: CTH+D, Dose Response: With dose response, Evaluation Type: Evaluation A (Pre-1980)",active; positive
same,mutagenic call,"Species/Cell Type: Mouse embryo (AKR/ME) cells, Assay Type: Cell transformation, Assay Code: CTK+, Evaluation Type: Evaluation A (Pre-1980)",active; positive
same,mutagenic call,[2],active; positive
same,call,[3],active; positive
same,mutagenic call,"Species/Cell Type: Nonhuman, Assay Type: Sister-chromatid exchange (SCE) in vitro, Assay Code: SC2+D, Dose Response: With dose response, Evaluation Type: Evaluation A (Pre-1980)",active; positive
same,mutagenic call,"Species/Cell Type: Nonhuman, Assay Type: Sister-chromatid exchange (SCE) in vivo, Assay Code: SC3+, Evaluation Type: Evaluation B (Post-1980)",active; positive
same,mutagenic call,"Species/Cell Type: Nonhuman, Assay Type: Sister-chromatid exchange (SCE) in vivo, Assay Code: SC3T, Evaluation Type: Evaluation A (Pre-1980)",no conclusion
same,mutagenic call,"Species/Cell Type: Rat primary hepatocytes, Assay Type: Unscheduled DNA synthesis (UDS) in vitro, DNA effects, Assay Code: UDP+, Evaluation Type: Evaluation A (Pre-1980)",active; positive
same,mutagenic call,[4],active; positive
same,mutagenic call,[5],active; positive
same,mutagenic call,[6],active; positive
same,mutagenic call,"Species/Cell Type: Salmonella typhimurium, Assay Type: Forward and reverse gene mutation, host-mediated assay, Assay Code: HMA+, Evaluation Type: Evaluation A (Pre-1980)",active; positive
same,mutagenic call,"Species/Cell Type: Syrian hamster embryo (SA7/SHE) cells, Assay Type: Cell transformation, viral enhanced, Assay Code: CT7+, Evaluation Type: Evaluation A (Pre-1980)",active; positive
same,mutagenic call,"Species/Cell Type: Syrian hamster embryo (SHE) cells, Assay Type: Cell transformation, clonal assay, Assay Code: CTC+D, Dose Response: With dose response, Evaluation Type: Evaluation A (Pre-1980)",active; positive
same,mutagenic call,"Species/Cell Type: Syrian hamster embryo (SHE) cells, Assay Type: Cell transformation, focus assay, Assay Code: CTF+, Evaluation Type: Evaluation A (Pre-1980)",active; positive
OCC(Cl)(Cl)Cl,mutagenic call,[7],no conclusion
Cc1ccc2cc3c(ccc4ccccc43)cc2c1,mutagenic call,[8],active; positive
same,mutagenic call,[9],active; positive
Oc1c(Cl)cc(Cl)c2cccnc12,mutagenic call,[7],no conclusion
CC(C)Cl,mutagenic call,"Species/Cell Type: Saccharomyces cerevisiae, Assay Type: Mitotic recombination or gene conversion, Assay Code: YEH-, Evaluation Type: Evaluation A (Pre-1980)",inactive; negative
same,mutagenic call,[6],active; positive
C[As](SC#N)SC#N,mutagenic call,"Species/Cell Type: Bacillus subtilis (H17 vs M45), Assay Type: Rec-assay, spot test, DNA effects (bacterial DNA repair), Assay Code: REW+, Evaluation Type: Evaluation A (Pre-1980)",active; positive
Cc1cc2ccc(F)cc2c2ccc3ccccc3c12,mutagenic call,[7],no conclusion
OCC(Br)CBr (centres undefined),mutagenic call,[6],active; positive
COc1ccc2[nH]c3c(C)c4ccncc4c(C)c3c2c1,mutagenic call,"Species/Cell Type: Chinese hamster ovary (CHO) cells, Assay Type: Forward gene mutation at the HPRT locus, Assay Code: CHO+, Evaluation Type: Evaluation B (Post-1980)",active; positive
Cc1ccc(Cl)cc1N,mutagenic call,"Species/Cell Type: Mouse, Sex: Male, Assay Type: Sperm morphology, Assay Code: SPI-, Evaluation Type: Evaluation A (Pre-1980)",inactive; negative
same,call,[3],active; positive
O=c1cc(O)c2ccccc2[nH]1,mutagenic call,[9],active; positive
CO,mutagenic call,[10],no conclusion
same,mutagenic call,[11],inactive; negative
same,mutagenic call,"Species/Cell Type: Nonhuman, Assay Type: Sister-chromatid exchange (SCE) in vitro, Assay Code: SC2-, Evaluation Type: Evaluation A (Pre-1980)",inactive; negative
same,mutagenic call,"Species/Cell Type: Syrian hamster embryo (SA7/SHE) cells, Assay Type: Cell transformation, viral enhanced, Assay Code: CT7-, Evaluation Type: Evaluation A (Pre-1980)",inactive; negative
same,mutagenic call,"Species/Cell Type: Syrian hamster embryo (SHE) cells, Assay Type: Cell transformation, clonal assay, Assay Code: CTC-, Evaluation Type: Evaluation A (Pre-1980)",inactive; negative
C=Cc1ccccc1C,mutagenic call,"Species/Cell Type: Human lymphocytes, Assay Type: Sister-chromatid exchange (SCE) in vitro, Assay Code: SCL+D, Dose Response: With dose response, Evaluation Type: Evaluation B (Post-1980)",active; positive
same,mutagenic call,"Species/Cell Type: Human, Assay Type: Sister-chromatid exchange (SCE) in vitro, Assay Code: SC1+D, Dose Response: With dose response, Evaluation Type: Evaluation B (Post-1980)",active; positive
O=[N+]([O-])c1ccc(-c2nc(NCC(O)CO)c3ccccc3n2)s1 (centres undefined),mutagenic call,[7],no conclusion
CC(C)(C)OO,mutagenic call,[2],active; positive
same,mutagenic call,[4],active; positive
same,mutagenic call,"Species/Cell Type: Vicia faba, Assay Type: Chromosome aberrations, Assay Code: VIC+, Evaluation Type: Evaluation A (Pre-1980)",active; positive
Cc1cc(NC(=O)C2=C(O)c3ccccc3S(=O)(=O)N2C)no1,mutagenic call,"Species/Cell Type: Human lymphocytes, Assay Type: Sister-chromatid exchange (SCE) in vivo, Assay Code: SCY+, Evaluation Type: Evaluation B (Post-1980)",active; positive
CCCCCCO,mutagenic call,"Species/Cell Type: Nonhuman, Assay Type: Sister-chromatid exchange (SCE) in vivo, Assay Code: SC3T, Evaluation Type: Evaluation B (Post-1980)",no conclusion
C=CN(C)N=O,mutagenic call,[1],active; positive
same,call,[12],active; positive
ON=C1CCCCC1,mutagenic call,"Species/Cell Type: Drosophila melanogaster, Assay Type: Sex-linked recessive lethal gene mutation, Assay Code: SRLT, Evaluation Type: Evaluation A (Pre-1980)",no conclusion
O=C1NCCN1c1ncc([N+](=O)[O-])s1,mutagenic call,"Species/Cell Type: Escherichia coli WP2, Assay Type: Tryptophan reverse gene mutation, Assay Code: WP2+D, Dose Response: With dose response, Evaluation Type: Evaluation A (Pre-1980)",active; positive
same,mutagenic call,"Species/Cell Type: Escherichia coli WP2 UVRA, Assay Type: Tryptophan reverse gene mutation, Assay Code: WPU+D, Dose Response: With dose response, Evaluation Type: Evaluation A (Pre-1980)",active; positive
same,mutagenic call,"Species/Cell Type: Human, Sex: Male, Assay Type: Sperm morphology, Assay Code: SPH-, Evaluation Type: Evaluation A (Pre-1980)",inactive; negative
same,mutagenic call,"Species/Cell Type: Neurospora crassa, Assay Type: Forward gene mutation, Assay Code: NEF+, Evaluation Type: Evaluation A (Pre-1980)",active; positive
same,call,[12],active; positive
same,mutagenic call,[5],active; positive
same,mutagenic call,[6],active; positive
Clc1ccc2ccccc2n1,mutagenic call,[7],no conclusion
O=NN1CCNC1=O,mutagenic call,"Species/Cell Type: Arabidopsis species, Assay Type: Gene mutation, Assay Code: ARM+D, Dose Response: With dose response, Evaluation Type: Evaluation A (Pre-1980)",active; positive
same,mutagenic call,"Species/Cell Type: Saccharomyces cerevisiae, Assay Type: Forward gene mutation, Assay Code: YEF+, Evaluation Type: Evaluation A (Pre-1980)",active; positive
same,mutagenic call,[4],active; positive
same,mutagenic call,[5],active; positive
same,mutagenic call,[13],active; positive
same,mutagenic call,[6],active; positive
Cc1ccc2c(c1O)N[C@H](O)[C@@H]1CC(/C=C/C(N)=O)=CN1C2=O,mutagenic call,[10],no conclusion
same,mutagenic call,[8],active; positive
same,mutagenic call,[4],active; positive
same,mutagenic call,[5],active; positive
same,mutagenic call,[13],active; positive
same,mutagenic call,[7],no conclusion
O=[N+]([O-])c1cnc2ccccc2c1,mutagenic call,[11],inactive; negative
CCCCOc1ccc(CC(=O)NOC=O)cc1,mutagenic call,[8],active; positive
